From ChEMBL document CHEMBL5579802, “Identification of 3,4-dihydropyrimido[4,5-d]pyrimidin-2(1H)-one scaffolds as potent Lck inhibitors as anti-cancer agents” (Bioorg Med Chem Lett, 2024)

Tests used:
UACC-257 = assay: Antiproliferative activity against human UACC-257 cells; type: functional
T47D = assay: Antiproliferative activity against human T47D cells; type: functional
COLO 201 [1] = assay: Induction of apoptosis in human COLO201 cells assessed as viable cells at 0.2 uM by Annexin V-FITC and PI staining based flow cytometry analysis ( Rvb = 90%); type: functional; conditions: read-out: Activity
SF-268 = assay: Antiproliferative activity against human SF-268 cells; type: functional
COLO 201 [2] = assay: Induction of apoptosis in human COLO201 cells assessed as viable cells at 2 uM by Annexin V-FITC and PI staining based flow cytometry analysis (reference value: 90%); type: functional; conditions: read-out: Activity
PC-3 = assay: Antiproliferative activity against human PC-3 cells; type: functional
OVCAR-3 = assay: Antiproliferative activity against human OVCAR-3 cells; type: functional
COLO 201 [3] = assay: Induction of apoptosis in human COLO201 cells assessed as early apoptotic cells at 10 uM by Annexin V-FITC and PI staining based flow cytometry analysis (reference value: 3.2%); type: functional
M14 = assay: Antiproliferative activity against human M14 cells; type: functional
COLO 201 [4] = assay: Induction of apoptosis in human COLO201 cells assessed as late apoptotic cells at 0.2 uM by Annexin V-FITC and PI staining based flow cytometry analysis (reference value: 6.2%); type: functional
Malme-3M = assay: Antiproliferative activity against human Malme-3M cells; type: functional
786-0 = assay: Antiproliferative activity against human 786-0 cells; type: functional
UO-31 = assay: Antiproliferative activity against human UO-31 cells; type: functional
U-251 = assay: Antiproliferative activity against human U-251 cells; type: functional
MDA-MB-231 = assay: Antiproliferative activity against human MDA-MB-231 cells; type: functional
COLO 201 [5] = assay: Induction of apoptosis in human COLO201 cells assessed as necrotic cells at 10 uM by Annexin V-FITC and PI staining based flow cytometry analysis (reference value: 0.7%); type: functional
OVCAR-5 = assay: Antiproliferative activity against human OVCAR-5 cells; type: functional
COLO 201 [6] = assay: Induction of apoptosis in human COLO201 cells assessed as increase in cleaved PARP level by Western blotting analysis; type: functional, cell-based; conditions: dose 1-10 µM
MDA-MB-435 = assay: Antiproliferative activity against human MDA-MB-435 cells; type: functional
HCT-116 = assay: Antiproliferative activity against human HCT-116 cells; type: functional
IGROV-1 = assay: Antiproliferative activity against human IGROV-1 cells; type: functional
CAKI-1 = assay: Antiproliferative activity against human CAKI-1 cells; type: functional
MOLT-4 = assay: Antiproliferative activity against human MOLT-4 cells; type: functional
A549 = assay: Antiproliferative activity against human A549 cells; type: functional
EKVX = assay: Antiproliferative activity against human EKVX cells; type: functional
HOP-92 = assay: Antiproliferative activity against human HOP-92 cells; type: functional
COLO 201 [7] = assay: Induction of apoptosis in human COLO201 cells assessed as early apoptotic cells at 0.2 uM by Annexin V-FITC and PI staining based flow cytometry analysis (reference value: 3.2%); type: functional
SK-MEL-28 = assay: Antiproliferative activity against human SK-MEL-28 cells; type: functional
TK-10 = assay: Antiproliferative activity against human TK-10 cells; type: functional
COLO 201 [8] = assay: Induction of apoptosis in human COLO201 cells assessed as viable cells at 1 uM by Annexin V-FITC and PI staining based flow cytometry analysis (reference value: 90%); type: functional; conditions: read-out: Activity
SNB-19 = assay: Antiproliferative activity against human SNB-19 cells; type: functional
SK-OV-3 = assay: Antiproliferative activity against human SK-OV-3 cells; type: functional
SN12C = assay: Antiproliferative activity against human SN12C cells; type: functional
K562 = assay: Antiproliferative activity against human K562 cells; type: functional
COLO 205 = assay: Antiproliferative activity against human COLO 205 cells; type: functional
ACHN = assay: Antiproliferative activity against human ACHN cells; type: functional
COLO 201 [9] = assay: Antiproliferative activity against human COLO201 cells; type: functional
COLO 201 [10] = assay: Induction of apoptosis in human COLO201 cells assessed as early apoptotic cells at 1 uM by Annexin V-FITC and PI staining based flow cytometry analysis (reference value: 3.2%); type: functional
SW-620 = assay: Antiproliferative activity against human SW620 cells; type: functional
MCF7 = assay: Antiproliferative activity against human MCF7 cells; type: functional
COLO 201 [11] = assay: Induction of apoptosis in human COLO201 cells assessed as early apoptotic cells at 2 uM by Annexin V-FITC and PI staining based flow cytometry analysis (reference value: 3.2%); type: functional
COLO 201 [12] = assay: Induction of apoptosis in human COLO201 cells assessed as viable cells at 10 uM by Annexin V-FITC and PI staining based flow cytometry analysis (reference value: 90%); type: functional; conditions: read-out: Activity
HT-29 = assay: Antiproliferative activity against human HT-29 cells; type: functional
KM12 = assay: Antiproliferative activity against human KM12 cells; type: functional
LOX IMVI = assay: Antiproliferative activity against human LOX IMVI cells; type: functional
OVCAR-8 = assay: Antiproliferative activity against human OVCAR-8 cells; type: functional
NCI/ADR-RES = assay: Antiproliferative activity against human NCI/ADR-RES cells; type: functional
MDA-MB-468 = assay: Antiproliferative activity against human MDA-MB-468 cells; type: functional
NCI-H23 = assay: Antiproliferative activity against human NCI-H23 cells; type: functional
HOP-62 = assay: Antiproliferative activity against human HOP-62 cells; type: functional
SR = assay: Antiproliferative activity against human SR cells; type: functional
Hs-578T = assay: Antiproliferative activity against human Hs-578T cells; type: functional
SNB-75 = assay: Antiproliferative activity against human SNB-75 cells; type: functional
COLO 201 [13] = assay: Induction of apoptosis in human COLO201 cells assessed as necrotic cells at 2 uM by Annexin V-FITC and PI staining based flow cytometry analysis (reference value: 0.7%); type: functional
HCT-15 = assay: Antiproliferative activity against human HCT-15 cells; type: functional
A498 = assay: Antiproliferative activity against human A498 cells; type: functional
HCC 2998 = assay: Antiproliferative activity against human HCC 2998 cells; type: functional
SK-MEL-2 = assay: Antiproliferative activity against human SK-MEL-2 cells; type: functional
NCI-H522 = assay: Antiproliferative activity against human NCI-H522 cells; type: functional
DU-145 = assay: Antiproliferative activity against human DU-145 cells; type: functional
NCI-H460 = assay: Antiproliferative activity against human NCI-H460 cells; type: functional
BT-549 = assay: Antiproliferative activity against human BT-549 cells; type: functional
NCI-H226 = assay: Antiproliferative activity against human NCI-H226 cells; type: functional
COLO 201 [14] = assay: Induction of apoptosis in human COLO201 cells assessed as necrotic cells at 0.2 uM by Annexin V-FITC and PI staining based flow cytometry analysis (reference value: 0.7%); type: functional
COLO 201 [15] = assay: Induction of apoptosis in human COLO201 cells assessed as necrotic cells at 1 uM by Annexin V-FITC and PI staining based flow cytometry analysis (reference value: 0.7%); type: functional
HL-60(TB) = assay: Antiproliferative activity against human HL-60(TB) cells; type: functional
RXF 393 = assay: Antiproliferative activity against human RXF 393 cells; type: functional
[16] = Antiproliferative activity against human […] cells; type: functional
COLO 201 [17] = assay: Induction of apoptosis in human COLO201 cells assessed as late apoptotic cells at 10 uM by Annexin V-FITC and PI staining based flow cytometry analysis (reference value: 6.2%); type: functional
[18] = molecular target: T1, Tyrosine-protein kinase Lck (Homo sapiens, UniProt P06239); assay: Inhibition of recombinant human LCK (64 to 509 residues) incubated for 60 mins in presence of ATP by HTRF method
COLO 201 [19] = assay: Induction of apoptosis in human COLO201 cells assessed as late apoptotic cells at 2 uM by Annexin V-FITC and PI staining based flow cytometry analysis (reference value: 6.2%); type: functional
COLO 201 [20] = assay: Induction of apoptosis in human COLO201 cells assessed as late apoptotic cells at 1 uM by Annexin V-FITC and PI staining based flow cytometry analysis (reference value: 6.2%); type: functional
[21] = molecular target: T1, Tyrosine-protein kinase Lck; assay: Inhibition of LCK (unknown origin)

T1 sequence (P06239 whole entry, the tested form may be a part): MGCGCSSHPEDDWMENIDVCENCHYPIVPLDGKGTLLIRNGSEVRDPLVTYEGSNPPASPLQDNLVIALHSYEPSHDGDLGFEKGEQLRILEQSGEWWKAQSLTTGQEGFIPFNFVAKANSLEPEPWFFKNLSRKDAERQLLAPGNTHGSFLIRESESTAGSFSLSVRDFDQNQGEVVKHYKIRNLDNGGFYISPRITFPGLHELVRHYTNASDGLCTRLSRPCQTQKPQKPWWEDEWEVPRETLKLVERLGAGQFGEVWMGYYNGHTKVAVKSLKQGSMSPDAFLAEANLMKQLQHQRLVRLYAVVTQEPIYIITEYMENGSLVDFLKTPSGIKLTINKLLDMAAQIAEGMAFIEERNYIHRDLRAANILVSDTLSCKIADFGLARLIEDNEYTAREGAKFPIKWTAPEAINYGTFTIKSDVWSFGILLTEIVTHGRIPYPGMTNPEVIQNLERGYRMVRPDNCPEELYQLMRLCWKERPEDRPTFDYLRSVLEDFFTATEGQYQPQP

In the case of `Cc1ccc(Nc2ncc3c(n2)N(C)C(=O)N(c2cc(NC(=O)c4ccc([N+](=O)[O-])c(OCC(C)C)c4)ccc2C)C3)cn1`, the GI50 (UACC-257) is reported as 670 nM, the GI50 (T47D) is reported as 700 nM and the viability at 0.2 µM (COLO 201 [1]) is reported as 80.9%. It also gave a GI50 (SF-268) of 490 nM, a viability at 2 µM (COLO 201 [2]) of 57.1% and a GI50 (PC-3) of 790 nM. It also gave a GI50 (OVCAR-3) of 1090 nM, an Activity (COLO 201 [3]) of 13.3% and a GI50 (M14) of 160 nM. The Activity (COLO 201 [4]) was 11.7%, the GI50 (Malme-3M) was 200 nM and the GI50 (786-0) was 450 nM. It also gave a GI50 (UO-31) of 270 nM, a GI50 (U-251) of 550 nM and a GI50 (MDA-MB-231) of 130 nM. The Activity (COLO 201 [5]) was 7.4%, the GI50 (OVCAR-5) was 540 nM and the Activity (COLO 201 [6]) was “Dose-Dependent Effect”. For the same molecule, the GI50 (MDA-MB-435) was 250 nM, the GI50 (HCT-116) was 330 nM and the GI50 (IGROV-1) was 210 nM. It also gave a GI50 (CAKI-1) of 60 nM, a GI50 (MOLT-4) of 430 nM and a GI50 (A549) of 430 nM. The GI50 (EKVX) was 980 nM, the GI50 (HOP-92) was 90 nM and the Activity (COLO 201 [7]) was 5.6%. For the same molecule, the GI50 (SK-MEL-28) was 240 nM, the GI50 (TK-10) was 390 nM and the viability at 1 µM (COLO 201 [8]) was 61.3%. For the same molecule, the GI50 (SNB-19) was 3920 nM, the GI50 (SK-OV-3) was 190 nM and the GI50 (SN12C) was 170 nM. The GI50 (K562) was 10 nM, the GI50 (COLO 205) was 240 nM and the GI50 (ACHN) was 150 nM. The GI50 (COLO 201 [9]) was 1260 nM, the Activity (COLO 201 [10]) was 13.9% and the GI50 (SW-620) was 520 nM. The GI50 (MCF7) was 8330 nM, the Activity (COLO 201 [11]) was 17% and the viability at 10 µM (COLO 201 [12]) was 54.4%. It also gave a GI50 (HT-29) of 410 nM, a GI50 (KM12) of 740 nM and a GI50 (LOX IMVI) of 200 nM. It also gave a GI50 (OVCAR-8) of 410 nM, a GI50 (NCI/ADR-RES) of 3530 nM and a GI50 (MDA-MB-468) of 380 nM. The GI50 (NCI-H23) was 499 nM, the GI50 (HOP-62) was 1130 nM and the GI50 (SR) was 180 nM. For the same molecule, the GI50 (Hs-578T) was 280 nM, the GI50 (SNB-75) was 290 nM and the Activity (COLO 201 [13]) was 5.2%. For the same molecule, the GI50 (HCT-15) was 410 nM, the GI50 (A498) was 220 nM and the GI50 (HCC 2998) was 1100 nM. It also gave a GI50 (SK-MEL-2) of 92 nM, a GI50 (NCI-H522) of 300 nM and a GI50 (DU-145) of 400 nM. The GI50 (NCI-H460) was 430 nM, the GI50 (BT-549) was 1370 nM and the GI50 (NCI-H226) was 410 nM. It also gave an Activity (COLO 201 [14]) of 1.8%, an Activity (COLO 201 [15]) of 4.6% and a GI50 (HL-60(TB)) of 230 nM. It also gave a GI50 (RXF 393) of 94 nM and a GI50 [16] of 480 nM.

With `COc1cc(-c2nn(C3CCC(N4CCN(C(C)=O)CC4)CC3)c3ncnc(N)c23)ccc1NC(=O)c1cc2ccccc2n1C` (stereo unspecified) the viability at 0.2 µM (COLO 201 [1]) was 92.6%, the viability at 2 µM (COLO 201 [2]) was 82.6% and the Activity (COLO 201 [17]) was 52.7%. For the same molecule, the IC50 [18] was 147 nM, the Activity (COLO 201 [3]) was 16.9% and the Activity (COLO 201 [4]) was 4.3%. For the same molecule, the Activity (COLO 201 [5]) was 3.8%, the Activity (COLO 201 [19]) was 8.5% and the Activity (COLO 201 [7]) was 2.5%. For the same molecule, the viability at 1 µM (COLO 201 [8]) was 88.7%, the Activity (COLO 201 [20]) was 6.6% and the Activity (COLO 201 [10]) was 3.4%. For the same molecule, the Activity (COLO 201 [11]) was 7.1%, the viability at 10 µM (COLO 201 [12]) was 26.6% and the IC50 [21] was 147 nM. For the same molecule, the Activity (COLO 201 [13]) was 1.8%, the Activity (COLO 201 [14]) was 0.6% and the Activity (COLO 201 [15]) was 1.2%.
